Data: patent US8507536B2, “Gonadotropin-releasing hormone receptor antagonists and methods relating thereto” (Neurocrine Biosciences, Inc., priority 2007, dated 2013)

target: T1, human GnRH receptor (Homo sapiens, UniProt P30968); experiment: peptide competitive human receptor binding assays (radioligand displacement); conditions: tested in one or more of the peptide competitive human receptor binding assays
T1 construct: expressed in transfected cells; membrane preparations
T1 sequence (P30968 1-328): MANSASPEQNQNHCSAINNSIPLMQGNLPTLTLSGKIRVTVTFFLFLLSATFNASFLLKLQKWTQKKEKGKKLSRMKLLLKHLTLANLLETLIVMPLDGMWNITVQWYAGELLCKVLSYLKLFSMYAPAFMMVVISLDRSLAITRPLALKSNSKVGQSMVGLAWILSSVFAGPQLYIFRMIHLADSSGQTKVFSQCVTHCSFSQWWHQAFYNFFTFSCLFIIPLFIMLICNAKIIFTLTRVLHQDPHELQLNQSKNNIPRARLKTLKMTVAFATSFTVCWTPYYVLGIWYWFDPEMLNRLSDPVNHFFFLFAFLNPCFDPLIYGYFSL
Procedure: HEK293 cells stably transfected with the human GnRH receptor are grown for two days after achieving confluence then are harvested by striking tissue culture flasks against a firm surface. Cells are collected by centrifugation at 1000 g for […]. Cell pellets are resuspended in 5% sucrose and homogenized using a polytron homogenizer for two 15 second homogenization steps. Cell homogenates are then centrifuged for 5 minutes at 3000 g to remove nuclei and the supernatant subsequently centrifuged for 30 minutes at 44,000 g to collect the membrane fraction. The membrane pellet is resuspended in GnRH binding buffer (10 mM HEPES, pH 7.5, 150 mM NaCl and 0.1% BSA) and aliquots immediately snap-frozen in liquid nitrogen and stored at −80° C. Protein content of the membrane suspension is determined using the Bio-Rad protein assay kit (Bio-Rad).
RBL cells stably transfected with the human GnRH receptor are grown to 80% confluency prior to harvesting. The cells are incubated at 37° C. for 10 min in 0.5 mM EDTA/PBS (Ca^++, Mg^++ free), and are dislodged from the plate by gentle rapping of the flasks. Cells are collected and pelleted by centrifugation at 1000 g for 5 minutes. Cell pellets are resuspended in buffer (DPBS supplemented with 10 mM MgCl2, 2 mM EGTA, pH=7.4), and cell lysis is performed using a pressure cell and applying N2 at a pressure of 900 psi for 30 min at 4° C. Unbroken cells and larger debris were removed by centrifugation at 1200 g for 10 min at 4° C. The cell membrane supernatant is then centrifuged at 45,000 g and the resulting membrane pellet is resuspended in assay buffer and homogenized on ice using a tissue homogenizer. Protein concentrations are determined using the Coomassie Plus Protein Reagent kit. Membranes are aliquoted and stored at −80° C. until ready for use.
Radioligand binding displacement assays using the peptide radioligands are performed in buffer containing 10 mM HEPES, 150 mM NaCl and 0.1% BSA, pH=7.5. Radioligand binding assays employing the use of [^3H]-1-(2,6-difluorobenzyl)-3-[(2R)-amino-2-phenethyl]-5-(2-fluoro-3-methoxyphenyl)-6-methyluracil (here the 3-methoxy group is tritiated) are run in buffer containing 50 mM Tris, 150 mM NaCl, 5 mM MgCl2, 0.01% saponin and 0.5 mM EDTA, pH=7.5. Radioligand displacement assays are performed by incubating radioligand ([^125I-Tyr^5, DLeu^6, NMeLeu^7, Pro^9-NEt]GnRH (0.1 nM), [His^5, ^125I-DTyr^6]GnRH (0.2 nM) (31) or [^3H]-1-(2,6-difluorobenzyl)-3-[(2R)-amino-2-phenethyl]-5-(2-fluoro-3-methoxyphenyl)-6-methyluracil (1 nM)), unlabeled competitors at concentrations ranging from 0.3 pM to 10 μM, and membranes for 2 hrs at rt. 10 to 20 μg protein/well is used from membrane preparations for human, monkey and rabbit GnRH receptor. 5 μg/well and 60 μg/well of membranes are used for rat and dog GnRH receptors, respectively. Binding assays are performed in either Millipore 96-well GF/C filtration plates (for ([^125I-Tyr^5, DLeu^6, NMeLeu^7, Pro^9-NEt]GnRH assays), or in 96 well low binding plates, which are subsequently filtered onto GF/C Unifilters. Filters are pretreated with 0.5% PEI for 30 min prior to use. Reactions are terminated by rapid vacuum filtration, and the filters are washed twice with 250 μL ice cold PBS pH=7.4 (0.01% Tween-20 is included in wash media for [His^5, ^125I-DTyr^6]GnRH and [^3H]-1-(2,6-difluorobenzyl)-3-[(2R)-amino-2-phenethyl]-5-(2-fluoro-3-methoxyphenyl)-6-methyluracil radioligands). The filters are dried, and the Millipore filters are monitored for radioactivity using a Cobra II gamma counter (Perkin Elmer Life Sciences). For assays filtered onto the GF/C Unifilter plates, 50 μL scintillation fluid is added to each filter, and radioactivity is monitored using a TopCount NXT. For iodinated radioligands, total radioligand is monitored on a gamma counter, and for the tritiated radioligand, total radioligand is monitored using a Perkin Elmer 1600TR liquid scintillation counter. […]

| SMILES | Ki [nM] |
| --- | --- |
| CC1(C)CCN(S(=O)(=O)c2cc(-c3cnc(C(F)(F)F)cc3C#N)c(Cl)cc2CC(=O)O)c2ccccc21 [Example 17-1, [5-Chloro-4-(4-cyano-6-trifluoromethyl-pyridin-3-yl)-2-(4,4-dimethyl-3,4-dihydro-2H-quinoline-1-sulfonyl)-phenyl]-acetic acid] | ≤ 100 |
| CN(c1ccccn1)S(=O)(=O)c1cc(-c2cnc(C(F)(F)F)cc2C#N)c(Cl)cc1OCCCC(=O)O [Example 18-1, 4-[5-chloro-4-(4-cyano-6-trifluoromethyl-pyridin-3-yl)-2-(methyl-pyridin-2-yl-sulfamoyl)-phenoxy]-butyric acid] | ≤ 100 |
| CN(c1ccccn1)S(=O)(=O)c1cc(-c2cnc(C(F)(F)F)cc2C#N)c(Cl)cc1OCCC(=O)O [Example 18-2, 3-[5-chloro-4-(4-cyano-6-trifluoromethyl-pyridin-3-yl)-2-(methyl-pyridin-2-yl-sulfamoyl)-phenoxy]-propionic acid] | ≤ 100 |
| CN(c1ccccn1)S(=O)(=O)c1cc(-c2cnc(C(F)(F)F)cc2C#N)c(Cl)cc1OCC(=O)O [Example 18-3, [5-chloro-4-(4-cyano-6-trifluoromethyl-pyridin-3-yl)-2-(methyl-pyridin-2-yl-sulfamoyl)-phenoxy]-acetic acid] | ≤ 100 |
| CN(c1ccccc1)S(=O)(=O)c1cc(-c2cnc(C(F)(F)F)cc2C#N)c(Cl)cc1OCC(=O)O [Example 19-1, [5-chloro-4-(4-cyano-6-trifluoromethyl-pyridin-3-yl)-2-(methyl-phenyl-sulfamoyl)-phenoxy]-acetic acid] | ≤ 100 |
